Values quoted from earlier work, collected in patent publication US5691307A, “O^6 -substituted guanine compositions and methods for depleting O^6” (The United States of America as represented by the …, priority 1994, dated 1997).
Entries after “also recorded” stand apart in the source; their conditions may differ.

What was measured:
AGT = details: cited from earlier work
[1] = tested on: AGT activity of D341MED xenograft tumors; details: i.p., sc D341MED; cited from earlier work
[2] = tested on: intracranial (ic) xenografts of D341MED; details: athymic mice; cited from earlier work
[3] = tested on: D245MG, a human glioma xenograft; details: sc D245MG, cited from earlier work
prostate tumors = details: cited from earlier work
[4] = tested on: human colon cancer cells (HT29); details: HT29, in vitro; cited from earlier work
[5] = tested on: malignant glioma cells (SF767); details: SF767, in vitro; cited from earlier work
melanoma cells (M19-mel) = details: in vitro; cited from earlier work
tumor cells = details: cited from earlier work
[6] = athymic mice; cited from earlier work
[7] = tested on: D341MED, a human medulloblastoma xenograft; details: sc D341MED, cited from earlier work
human tumor xenografts = details: nude mice bearing human tumor xenografts; cited from earlier work

Nc1nc(OCc2ccccc2)c2nc[nH]c2n1 [O^6 -benzylguanine]
potency as AGT depleter (AGT): more potent | AGT depletion (shown previously) (AGT; literature): effective in depleting AGT; also recorded: dramatic and rapid depletion of cellular alkyltransferase activity | AGT activity of the tumors [1]: undetectable | time to undetectable tumor AGT activity [1]: ≤ 1 h | time until which tumor AGT remained depleted [1]: 36 h | survival, BCNU 1 hour after O^6-benzylguanine [2]: significantly increased survival as compared to that of control, BCNU alone, O^6 -benzylguanine alone and O^6 -benzylguanine followed 36 hours later by BCNU | therapeutic effect, higher doses of O^6-benzylguanine ([3]; with BCNU): greater therapeutic effect | therapeutic effect of combination regimens vs equitoxic dose of BCNU alone [3]: None of the combination regimens, however, were as effective as an equitoxic dose of BCNU alone | therapeutic effect, O^6-benzylguanine 1 hour prior to BCNU [3]: significantly greater effect than was seen with BCNU treatment alone | anti-tumor effect of BCNU after O^6-benzylguanine pretreatment (prostate tumors; prostate cancer): enhanced | regression in tumor growth (prostate tumors; rats bearing prostate tumors, O^6-benzylguanine one hour prior to BCNU, or BCNU alone at equal dose): regression in tumor growth | sensitivity to chloroethylating and methylating anti-tumor drugs [4]: increase the sensitivity | sensitivity to chloroethylating and methylating anti-tumor drugs [5]: increase the sensitivity | sensitivity to chloroethylating and methylating anti-tumor drugs (melanoma cells (M19-mel)): increase the sensitivity | enhancement in the cytotoxic response to alkylating agents (tumor cells): enhancement in the cytotoxic response to chemotherapeutic alkylating agents | toxicity of BCNU after O^6-benzylguanine pretreatment [6]: increased the toxicity of BCNU significantly | therapeutic effect, lower pretreatment dose of O^6-benzylguanine ([7]; with BCNU): significantly lesser therapeutic effect | therapeutic effect, BCNU 1 hour after O^6-benzylguanine [7]: significantly greater effect than was seen with either the same or a higher dose of BCNU alone | therapeutic effect, BCNU delayed until 36 hours after O^6-benzylguanine [7]: greatly reduced effect that was not significantly different than that produced by control or BCNU alone | therapeutic effectiveness of chloroethylating nitrosoureas after pretreatment (human tumor xenografts): dramatic increase in the therapeutic effectiveness of chloroethylating nitrosoureas in vivo
